The values that follow come from patent publication US4999352A, “1-(1-aryl-2-hydroxyethyl)-imidazoles and salts thereof, medicaments containing these compounds, and the use thereof” (Hoechst Aktiengesellschaft, priority 1987, dated 1991).

The subject of the assay is tetrabenazine-induced ptosis. Kind of assay: Test for influence on tetrabenazine-induced ptosis in mice. The class given is in vivo, mice (male, SPF-71, KF:NMRI). To be noted: Mus musculus, po, 0.5 h, p.o., tetrabenazine 40 mg/kg i.p. 30 minutes after test substance, ptosis scored 30 minutes later, 50% of control ptosis, 95% confidence limit in parentheses. Here is the method:
Test for influence on tetrabenazine-induced ptosis
Male mice (SPF-71, KF:NMRI) weighing 18-22 g were allotted at random to treatment groups of 6 animals. The test substances were suspended in 1% strength methylhydroxyethylcellulose (MH)/water and administered orally at 10 ml/kg of body weight. A control group was given the solvent (1% strength MH), and the standard group was given 10 mg/kg p.o. of nomifensine (in 1% strength MH). The tetrabenazine solution used was prepared from methanesulfonate (.congruent.76.8% of base), and an amount corresponding to 40 mg/kg of tetrabenazine base was administered intraperitoneally 30 minutes after the test substances. The ptosis was assessed according to the following scale 30 minutes after administration of tetrabenazine: […]
The ptosis scores were cumulated and the result of the groups related to the maximum score achievable (6×.varies.=100%). By means of linear regression, the ED50 (mg/kg) was determined as the dose at which the degree of ptosis is 50% of the value determined in the control group.
Regarding `C=CCC(C)(C)C(O)C(c1ccc(-c2ccccc2)cc1)n1ccnc1` (centres unmarked) [Example 13], the ED50 is 1.3 mg/kg.

With `CCCC(C)(C)C(O)C(c1ccc(-c2ccccc2)cc1)n1ccnc1` (centres unmarked) [Example 26, 1-(4-Diphenyl)-3,3-dimethyl-1-(1-imidazolyl)-2-hexanol], the ED50 was 1.2 mg/kg.

On to `C=CCC(C)(C)C(O)C(c1cccc(Cl)c1)n1ccnc1` (centres unmarked) [Example 2, 1-(3Chlorophenyl)-3,3-dimethyl-1-(1-imidazolyl)-5-hexen-2-ol], for which the ED50 turned out to be 2 mg/kg.

As for `CN1Cc2c(N)cccc2C(c2ccccc2)C1` (centres unmarked) [nomifensine, reference compound], the ED50 amounted to 1.2 mg/kg.

Take `C=CCC1(C(O)C(c2cccc(Cl)c2)n2ccnc2)CCCCC1` (centres unmarked) [Example 1, 1-(1-Allyl-1-cyclohexyl)-2-(3-chlorophenyl)-2-(1-imidazolyl)-ethanol]: the ED50 was determined as 3.9 mg/kg.

For orientation: ED50 means the dose at which the effect has come halfway, by size or by number of responders.
